Read-outs that look alike come from different tables or passages of the source.
Experiments:
[1] = tested on: patient one suffering from Ankylosing Spondylitis; experiment: Clinical course of a patient with ankylosing spondylitis (Example 7); type: in vivo, human; details: for control of the disease by prior therapy: before pramipexole
[2] = tested on: patient two suffering from autoimmune hemolytic anemia with leukopenia; details: one patient
Source text: Patient two suffered from autoimmune hemolytic anemia. The patient had leukopenia (reduced white blood cell (WBC) count; 2,300 WBC). Steroids were recommended, but the patient refused. The patient's heart rate variability was monitored using system 10: vagus, 0.17; sympathetic, 52; tension, 199; total power, 201. […] Therefore, pramipexole was prescribed for administration at night to address sympathetic overactivity. The patient's symptoms improved, and their WBC count began to increase (2400). These changes correlated with a reduction in excessive sympathetic nervous system activity: vagus, 0.22; sympathetic, 45; tension, 147; total power, 294.
The patient discontinued pramipexole against medical advice. WBC decreased to 2100 as excessive sympathetic nervous system activity increased: vagus, 0.20; sympathetic, 70; tension, 236; total power, 280.

[3] = tested on: sympathetic nervous system activity in the heart; details: for sympathetic / tension / total power / vagus: one patient on pramipexole plus steroid therapy; for sympathetic (heart rate variability) / tension (heart rate variability) / total power (heart rate variability) / vagus (heart rate variability): one patient
Source text: This system is commercially available as The OmegaWave Sport Technology System, which is sold by OmegaWave Sport, Inc., 2732 Sunnyview Lane, Eugene, Oreg. 97405, USA. […] FIG. 4 illustrates one embodiment of components of the system and various electrode/sensor placements on the human body. System 10 is adapted to perform the following tests on a human body: Heart Rate Variability; Differential electrocardiogram (ECG); Omega Wave; Jump; and Stimulus Response. In the practice of the present invention, system 10 is used to perform the Heart Rate Variability test.
Referring to FIG. 7, a diagram that illustrates the steps of conducting a heart rate variability test in accordance with the present invention is shown. In step 110, a person receiving a test (PRT) positions him or herself for sensor attachment. In step 112, the sensors are attached. In step 114, a user selects the desired heart rate variability test from CD 50. In step 115, ID 40 is initialized for appropriate data sensing and data propagation by CD 50. In step 116, the PRT is instructed to attain or maintain a state of rest. In step 117, the machine executable steps of the selected test(s) is/are carried out by CD 50. […] A description of machine executable steps of the heart rate variability test selected in step 114 of FIG. 7 is now presented. Processing cardiac signals as discussed below permits quantitative and qualitative analysis of the functional state of cardiac activity.
In this representative heart rate variability test, four electrode sensors are preferably utilized and they are preferably placed one each on the wrists and ankles. One sensor electrode is a ground and the other three collect standard ECG data or the like. Alternative sensor placement may be utilized. The heart rate variability test is based on the registration of cardiac contractions of standard electrocardiogram (ECG) readings over the course of a fixed span of time. The test records the change of period length (in seconds) between each cardiac contraction which is the time between ECG spikes, which are designated with the letter R.
After initialization of ID 40, cardiac muscle electrical activity is recorded for a fixed time period, e.g., 128 seconds (step 152). A fixed number of consecutive heart beat intervals (RR intervals), e.g., 100, is selected and analyzed (step 154). The intervals are processed in this exemplary method using a fast Fourier transformation to achieve frequency spectrum analysis (step 156) and the density of interval frequencies is plotted in a frequency spectrum-gram (step 158). Frequency spectrum analysis is known in the art as described supra. The following frequency ranges are preferably plotted: high frequency=0.15 to 0.4 Hz; low frequency=0.04 to 0.15 Hz; and very low frequency=0.004 to 0.04 Hz.
In step 172, various indices for cardiovascular system performance are calculated based on frequency spectrum and other data and these include: Vagus (parasympathetic) Regulation (VR); Humoral Regulation (HR); Sympathetic Regulation (SR); Tension (Stress) Index; Share of aperiodic influences; Standard deviation; and Frequency of Cardiac Contractions (FCC). Calculation of these or related indices is known in the art. (See, e.g., Baevskiy, R. M., et al., Mathematical Analysis of Changes in Heart Rate Rhythm Under Stress, Moscow Science, 1984). These indices may be interpreted to generate textual conclusions about the functional state of cardiac activity.
The OmegaWave Sport Technology System, described herein and in published United States patent application serial number U.S. 2002/0045835 A1, provides three values that can be used singly, or in combination, to determine whether sympathetic nervous system activity predominates over parasympathetic nervous system activity in the heart: activity of the vagus (parasympathetic) regulation mechanisms; activity of the sympathetic regulation mechanisms; and Tension index.

[4] = tested on: patient suffering from severe, previously untreatable, psoriatic arthropathy; experiment: Clinical course of a patient with severe psoriatic arthropathy (Example 3); type: in vivo, human; details: one patient
Source text: The following heart rate variability measurements were made in the patient using system 10: vagus, 0.16; sympathetic, 54; tension, 220; total power, 283.

[5] = after the patient discontinued pramipexole
[6] = pramipexole 2.0 mg per day at bedtime, with etanercept
[7] = pramipexole increased over 4 weeks to 4.5 mg per day at bedtime

Compound: CN(Cc1cnc2nc(N)nc(N)c2n1)c1ccc(C(=O)N[C@@H](CCC(=O)O)C(=O)O)cc1 [methotrexate]
- control of the disease by prior therapy [1]: failed to control

Compound: CCCN[C@H]1CCc2nc(N)sc2C1 [pramipexole]
- WBC [2, 5]: 2100
- WBC count ([2]; on pramipexole at night, 2,300 before treatment): 2400
- sympathetic ([3]; Dec. 11, 2001): 61
- tension ([3]; Dec. 11, 2001): 374
- total power ([3]; Dec. 11, 2001): 102
- vagus ([3]; Dec. 11, 2001): .10
- sympathetic ([3]; Feb. 5, 2002): 87
- tension ([3]; Feb. 5, 2002): 569
- total power ([3]; Feb. 5, 2002): 128
- vagus ([3]; Feb. 5, 2002): .09
- sympathetic ([3]; Nov. 14, 2001): 93
- tension ([3]; Nov. 14, 2001): 1278
- total power ([3]; Nov. 14, 2001): 24
- vagus ([3]; Nov. 14, 2001): .05
- sympathetic ([3]; Oct. 10, 2001): 93
- tension ([3]; Oct. 10, 2001): 1444
- total power ([3]; Oct. 10, 2001): 29
- vagus ([3]; Oct. 10, 2001): .05
- sympathetic (heart rate variability) [3, 5]: 70
- tension (heart rate variability) [3, 5]: 236
- total power (heart rate variability) [3, 5]: 280
- vagus (heart rate variability) [3, 5]: 0.20
- sympathetic (heart rate variability) ([3]; on pramipexole at night): 45
- tension (heart rate variability) ([3]; on pramipexole at night): 147
- total power (heart rate variability) ([3]; on pramipexole at night): 294
- vagus (heart rate variability) ([3]; on pramipexole at night): 0.22
- sympathetic (heart rate variability) [3, 6]: 54
- tension (heart rate variability) [3, 6]: 220
- total power (heart rate variability) [3, 6]: 283
- vagus (heart rate variability) [3, 6]: 0.16
- sympathetic (heart rate variability) [3, 7]: 43
- total power (heart rate variability) [3, 7]: 319
- vagus (heart rate variability) [3, 7]: 0.19
- tension (heart rate variability) ([3]; pramipexole increased over 4 weeks to 4.5 mg per day at bedtime, now normal): 145

Compound: C[C@]12C=CC(=O)C=C1CC[C@@H]1[C@@H]2C(=O)C[C@@]2(C)[C@H]1CC[C@]2(O)C(=O)CO [prednisone]
- adverse outcome of excessive prednisone ([1]; prednisone 40 mg per day): avascular necrosis of both hips and hip replacement

Compound: etanercept
- control of the disease by prior therapy [1]: failed to control
- response of chronic joint flares and synovial thickening to treatment ([4]; fifteen years, before pramipexole): resistant
- effectiveness of etanercept after pramipexole was added ([4]; over six weeks, pramipexole 2.0 mg per day at bedtime): became more effective
